From patent US20250170248A1, “SMARCA DEGRADERS AND USES THEREOF” (Kymera Therapeutics, Inc., priority 2021, published 2025)

How the values were obtained:
Type in all cases: cell-based
SMARCA2 [1] = biological target: T1, SMARCA2 (Homo sapiens, UniProt P51531); assay: MSD SMARCA2 degradation in A549 cell line; settings: for Dmax: A549, A549 cells; for Dmax / DC50: 24 h; for DC50: read-out: SMARCA2 MSD A549 degradation 24 h: Average external-Abs DC50
Outline: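 A549 cells treated 24 h with compound, 3-fold series from 1000 nM. Lysates captured on MSD plates and SMARCA2 quantified with anti-SMARCA2 and SULFO-TAG secondary antibodies (electrochemiluminescence). DC50 and Dmax (% degradation at 24 h) reported as letter bins.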

SMARCA4 = biological target: T2, SMARCA4 (Homo sapiens, UniProt P51532); assay: SMARCA4 Western blot degradation in MV4-11 cells; settings: for Dmax: MV4-11, MV4-11 cells, read-out: SMARCA4 MSD MV411 degradation 24 h: average Dmax %; for Dmax / DC50: 24 h; for DC50: read-out: SMARCA4 MSD MV411 degradation 24 h: Mean external-Abs DC50
T2 construct: SMARCA2/SMARCA4 protein degradation selectivity in MV4-11 cells; endogenous in cells; host or cells: MV4-11
T2 sequence (P51532 whole entry): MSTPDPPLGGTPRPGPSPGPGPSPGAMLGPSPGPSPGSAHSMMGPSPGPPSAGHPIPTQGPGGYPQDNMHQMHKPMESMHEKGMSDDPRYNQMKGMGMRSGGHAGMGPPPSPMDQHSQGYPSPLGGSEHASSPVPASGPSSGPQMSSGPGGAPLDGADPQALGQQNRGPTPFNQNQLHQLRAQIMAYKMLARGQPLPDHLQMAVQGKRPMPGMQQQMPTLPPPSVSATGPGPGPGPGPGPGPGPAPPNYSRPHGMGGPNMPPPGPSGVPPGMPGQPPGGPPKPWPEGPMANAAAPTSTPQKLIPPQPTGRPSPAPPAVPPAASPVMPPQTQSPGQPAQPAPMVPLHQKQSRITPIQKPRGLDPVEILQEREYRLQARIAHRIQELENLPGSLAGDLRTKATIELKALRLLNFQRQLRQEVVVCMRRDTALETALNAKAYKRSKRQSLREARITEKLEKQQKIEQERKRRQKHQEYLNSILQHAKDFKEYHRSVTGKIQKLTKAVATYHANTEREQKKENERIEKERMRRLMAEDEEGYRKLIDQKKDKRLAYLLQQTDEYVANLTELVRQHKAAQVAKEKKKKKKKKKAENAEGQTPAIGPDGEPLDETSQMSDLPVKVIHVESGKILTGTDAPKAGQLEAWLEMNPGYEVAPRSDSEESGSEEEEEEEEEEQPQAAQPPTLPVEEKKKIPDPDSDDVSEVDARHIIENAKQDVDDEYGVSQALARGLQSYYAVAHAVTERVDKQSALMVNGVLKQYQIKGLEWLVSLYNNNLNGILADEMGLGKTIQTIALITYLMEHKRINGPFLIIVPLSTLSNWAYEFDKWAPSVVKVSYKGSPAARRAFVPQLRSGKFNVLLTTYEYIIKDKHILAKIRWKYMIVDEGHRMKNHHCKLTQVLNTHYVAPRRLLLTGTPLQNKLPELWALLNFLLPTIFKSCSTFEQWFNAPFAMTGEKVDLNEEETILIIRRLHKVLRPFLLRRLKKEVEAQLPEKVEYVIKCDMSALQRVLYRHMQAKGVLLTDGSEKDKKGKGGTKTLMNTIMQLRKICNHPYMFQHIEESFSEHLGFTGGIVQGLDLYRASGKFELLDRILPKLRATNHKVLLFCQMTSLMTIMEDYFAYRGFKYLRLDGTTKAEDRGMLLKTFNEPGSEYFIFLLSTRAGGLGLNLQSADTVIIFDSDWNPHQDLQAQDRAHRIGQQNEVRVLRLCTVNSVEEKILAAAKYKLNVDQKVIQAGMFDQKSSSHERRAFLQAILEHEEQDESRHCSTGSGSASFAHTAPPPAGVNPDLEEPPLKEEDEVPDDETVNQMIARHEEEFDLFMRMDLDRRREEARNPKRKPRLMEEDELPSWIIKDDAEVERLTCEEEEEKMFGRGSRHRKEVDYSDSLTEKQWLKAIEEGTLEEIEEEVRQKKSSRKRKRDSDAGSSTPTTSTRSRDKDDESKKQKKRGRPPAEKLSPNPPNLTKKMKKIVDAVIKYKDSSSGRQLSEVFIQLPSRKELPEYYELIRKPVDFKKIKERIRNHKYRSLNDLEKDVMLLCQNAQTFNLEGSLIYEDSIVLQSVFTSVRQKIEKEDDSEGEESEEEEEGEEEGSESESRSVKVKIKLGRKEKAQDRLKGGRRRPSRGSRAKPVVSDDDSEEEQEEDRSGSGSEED
Outline: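 24 h compound exposure, MV4-11; RIPA lysates → SDS-PAGE → NC membrane; anti-SMARCA2/BRM, anti-BRG1, β-actin loading control; LI-COR fluorescence read. DC50 and Dmax at 24 h reported as letter bins.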

SMARCA2 [2] = biological target: T1, SMARCA2; assay: SMARCA2 Western blot degradation in MV4-11 cells; set-up: SMARCA2/SMARCA4 protein degradation selectivity in MV4-11 cells; endogenous in cells; host or cells: MV4-11; settings: for Dmax: MV4-11, MV4-11 cells, read-out: SMARCA2 MSD MV411 degradation 24 h: average Dmax %; for DC50: read-out: SMARCA2 MSD MV411 degradation 24 h: Mean external-Abs DC50; for Selectivity in MV411: SMARCA2/4 selectivity

T1 sequence (P51531 whole entry): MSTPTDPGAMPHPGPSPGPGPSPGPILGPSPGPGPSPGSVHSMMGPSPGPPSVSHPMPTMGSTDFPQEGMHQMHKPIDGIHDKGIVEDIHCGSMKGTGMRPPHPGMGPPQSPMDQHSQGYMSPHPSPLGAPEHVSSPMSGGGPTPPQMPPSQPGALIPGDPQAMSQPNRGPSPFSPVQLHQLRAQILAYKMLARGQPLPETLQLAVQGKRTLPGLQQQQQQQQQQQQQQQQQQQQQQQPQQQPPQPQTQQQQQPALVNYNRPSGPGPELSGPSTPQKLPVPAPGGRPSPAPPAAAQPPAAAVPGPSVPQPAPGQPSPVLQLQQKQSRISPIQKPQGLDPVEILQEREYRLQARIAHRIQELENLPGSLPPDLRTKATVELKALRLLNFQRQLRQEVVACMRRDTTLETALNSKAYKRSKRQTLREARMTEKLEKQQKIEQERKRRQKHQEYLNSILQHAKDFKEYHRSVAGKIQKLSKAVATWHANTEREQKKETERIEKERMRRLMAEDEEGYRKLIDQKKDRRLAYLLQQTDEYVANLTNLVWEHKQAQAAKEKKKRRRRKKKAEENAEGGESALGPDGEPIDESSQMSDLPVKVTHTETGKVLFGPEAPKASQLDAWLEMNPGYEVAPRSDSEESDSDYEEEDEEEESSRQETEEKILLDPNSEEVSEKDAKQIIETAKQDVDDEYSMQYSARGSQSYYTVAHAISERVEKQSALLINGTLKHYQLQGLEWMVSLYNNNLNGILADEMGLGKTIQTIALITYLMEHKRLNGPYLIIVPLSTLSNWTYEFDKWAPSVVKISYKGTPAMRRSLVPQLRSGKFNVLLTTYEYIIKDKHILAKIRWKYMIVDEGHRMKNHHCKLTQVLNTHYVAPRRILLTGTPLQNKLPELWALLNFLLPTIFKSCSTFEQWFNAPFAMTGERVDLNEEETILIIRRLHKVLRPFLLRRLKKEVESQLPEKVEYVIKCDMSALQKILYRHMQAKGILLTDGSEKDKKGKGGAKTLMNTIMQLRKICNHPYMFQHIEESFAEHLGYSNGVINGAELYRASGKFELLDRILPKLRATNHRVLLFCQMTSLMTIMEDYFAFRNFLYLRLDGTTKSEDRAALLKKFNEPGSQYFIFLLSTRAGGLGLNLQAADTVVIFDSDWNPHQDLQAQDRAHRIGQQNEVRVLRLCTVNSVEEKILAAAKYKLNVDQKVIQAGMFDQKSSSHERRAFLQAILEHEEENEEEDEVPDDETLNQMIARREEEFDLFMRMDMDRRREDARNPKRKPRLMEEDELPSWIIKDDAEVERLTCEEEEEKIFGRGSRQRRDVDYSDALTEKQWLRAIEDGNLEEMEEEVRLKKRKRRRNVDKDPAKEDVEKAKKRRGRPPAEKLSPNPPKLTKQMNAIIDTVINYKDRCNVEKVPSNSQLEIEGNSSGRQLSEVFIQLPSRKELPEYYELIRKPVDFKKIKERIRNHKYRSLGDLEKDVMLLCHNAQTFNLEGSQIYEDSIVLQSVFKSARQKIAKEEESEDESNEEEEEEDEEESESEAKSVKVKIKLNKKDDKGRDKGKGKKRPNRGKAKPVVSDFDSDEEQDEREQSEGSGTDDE

| Structure (SMILES) | Dmax (SMARCA2 [1]) | DC50 (SMARCA2 [1]; A549 cells) | Dmax (SMARCA4) | DC50 (SMARCA4; MV4-11 cells) | Dmax (SMARCA2 [2]; 24 h) | DC50 (SMARCA2 [2]; MV4-11 cells, 24 h) | Selectivity in MV411 (SMARCA2 [2]; MV4-11 cells) | SMARCA2 MSD A549 degradation 24 h: Average Dmax % (SMARCA2 [1]; A549 cells) | SMARCA4 MSD MV411 degradation 24 h: average Dmax % (SMARCA4; MV4-11 cells) | SMARCA2 MSD MV411 degradation 24 h: average Dmax % (SMARCA2 [2]; MV4-11 cells, 24 h) |
| --- | --- | --- | --- | --- | --- | --- | --- | --- | --- | --- |
| C#Cc1ccc(CNC(=O)[C@@H]2C[C@@H](O)CN2C(=O)[C@@H](NC(=O)N2CCN(CC3CCN(c4cnc(N5CCc6[nH]c7nnc(-c8ccccc8O)cc7c6[C@H]5C)nc4)CC3)CC2)C(C)(C)C)cc1 [I-159] | > 90% | > 100 nM | 50 to 70% | > 100 nM | 50 to 70% | 10 to 100 nM | B (B (>100-500 fold)) | – | – | – |
| C#Cc1ccc(CNC(=O)[C@@H]2C[C@@H](O)CN2C(=O)[C@@H](NC(=O)N2CCN(CC3CCN(c4cnc(N5CCN6c7cc(-c8ccccc8O)nnc7NC[C@H]6C5)nc4)CC3)CC2)C(C)(C)C)cc1 [I-163] | > 90% | 10 to 50 nM | 50 to 70% | > 100 nM | 70 to 90% | < 1 nM | B (B (>100-500 fold)) | – | – | – |
| C#Cc1ccc(CNC(=O)[C@@H]2C[C@@H](O)CN2C(=O)[C@@H](NC(=O)N2CC3(CN(CC4CCN(c5cnc(N6CCc7[nH]c8nnc(-c9ccccc9O)cc8c7[C@H]6C)nc5)CC4)C3)C2)C(C)(C)C)cc1 [I-164] | > 90% | > 100 nM | < 50% | > 100 nM | 70 to 90% | 10 to 100 nM | B (B (>100-500 fold)) | – | – | – |
| C#Cc1ccc(CNC(=O)[C@@H]2C[C@@H](O)CN2C(=O)[C@@H](NC(=O)N2CC3(CN(CC4CCN(c5cnc(N6CCc7[nH]c8nnc(-c9ccccc9O)cc8c7[C@@H]6C)nc5)CC4)C3)C2)C(C)(C)C)cc1 [I-165] | > 90% | > 100 nM | 70 to 90% | > 100 nM | 70 to 90% | 10 to 100 nM | D (D (<10 fold)) | – | – | – |
| C#Cc1ccc([C@H](CO)NC(=O)[C@@H]2C[C@@H](O)CN2C(=O)[C@@H](NC(=O)N2CC3(CC(N4CCC(c5cnc(N6CCc7[nH]c8nnc(-c9ccccc9O)cc8c7[C@H]6C)nc5)CC4)C3)C2)C(C)(C)C)cc1 [I-168] | > 90% | < 10 nM | > 90% | < 1 nM | > 90% | < 1 nM | C (C (10-100 fold)) | – | – | – |
| C#Cc1ccc([C@H](CCO)NC(=O)[C@@H]2C[C@@H](O)CN2C(=O)[C@@H](NC(=O)N2CC3(CC(N4CCC(c5cnc(N6CCc7[nH]c8nnc(-c9ccccc9O)cc8c7[C@H]6C)nc5)CC4)C3)C2)C(C)(C)C)cc1 [I-169] | > 90% | 10 to 50 nM | < 50% | > 100 nM | 70 to 90% | 1 to 10 nM | B (B (>100-500 fold)) | – | – | – |
| C#Cc1ccc(CNC(=O)[C@@H]2C[C@@H](O)CN2C(=O)[C@@H](NC(=O)N2CC3(CC(N4CCC5(CCN(c6cnc(N7CCc8[nH]c9nnc(-c%10ccccc%10O)cc9c8C7C)nc6)C5)C4)C3)C2)C(C)(C)C)cc1 (some centres unmarked) [I-173] | > 90% | > 100 nM | 50 to 70% | > 100 nM | 50 to 70% | 10 to 100 nM | C (C (10-100 fold)) | – | – | – |
| C#Cc1ccc(CNC(=O)[C@@H]2C[C@@H](O)CN2C(=O)[C@@H](NC(=O)N2CC3(CC(N4CCC(N5CCC(N6CCc7[nH]c8nnc(-c9ccccc9O)cc8c7[C@@H]6C)CC5)CC4)C3)C2)C(C)(C)C)cc1 [I-180] | > 90% | > 100 nM | > 90% | > 100 nM | 70 to 90% | 10 to 100 nM | D (D (<10 fold)) | – | – | – |
| C#Cc1ccc(CNC(=O)[C@@H]2C[C@@H](O)CN2C(=O)[C@@H](NC(=O)N2CC3(CC(N4CCC(N5CCC(N6CCc7[nH]c8nnc(-c9ccccc9O)cc8c7[C@H]6C)CC5)CC4)C3)C2)C(C)(C)C)c(F)c1 [I-181] | > 90% | > 100 nM | < 50% | > 100 nM | 50 to 70% | 10 to 100 nM | B (B (>100-500 fold)) | – | – | – |
| C#Cc1ccc(CNC(=O)[C@@H]2C[C@@H](O)CN2C(=O)[C@@H](NC(=O)N2CC3(CC(N4CCC(N5CCC(N6CCc7[nH]c8nnc(-c9ccccc9O)cc8c7[C@@H]6C)CC5)CC4)C3)C2)C(C)(C)C)c(F)c1 [I-182] | > 90% | > 100 nM | 70 to 90% | > 100 nM | 50 to 70% | 10 to 100 nM | D (D (<10 fold)) | – | – | – |

Further lines, results first:

| Dmax (SMARCA2 [1]) | DC50 (SMARCA2 [1]; A549 cells) | Dmax (SMARCA4) | DC50 (SMARCA4; MV4-11 cells) | Dmax (SMARCA2 [2]; 24 h) | DC50 (SMARCA2 [2]; MV4-11 cells, 24 h) | Selectivity in MV411 (SMARCA2 [2]; MV4-11 cells) | SMARCA2 MSD A549 degradation 24 h: Average Dmax % (SMARCA2 [1]; A549 cells) | SMARCA4 MSD MV411 degradation 24 h: average Dmax % (SMARCA4; MV4-11 cells) | SMARCA2 MSD MV411 degradation 24 h: average Dmax % (SMARCA2 [2]; MV4-11 cells, 24 h) | Structure (SMILES) |
| --- | --- | --- | --- | --- | --- | --- | --- | --- | --- | --- |
| > 90% | 10 to 50 nM | 70 to 90% | > 100 nM | 70 to 90% | 1 to 10 nM | C (C (10-100 fold)) | – | – | – | C#Cc1ccc([C@H](C)NC(=O)[C@@H]2C[C@@H](O)CN2C(=O)[C@@H](OC(=O)N2CC3(CC(N4CCC(c5cnc(N6CCc7[nH]c8nnc(-c9ccccc9O)cc8c7[C@H]6C)nc5)CC4)C3)C2)C(C)(C)C)cc1 [I-150] |
| > 90% | 10 to 50 nM | 50 to 70% | > 100 nM | 70 to 90% | 1 to 10 nM | C (C (10-100 fold)) | – | – | – | C#Cc1ccc([C@H](C)NC(=O)[C@@H]2C[C@@H](O)CN2C(=O)[C@@H](NC(=O)N2CC3(CC(N4CCC(c5cnc(N6CCc7[nH]c8nnc(-c9ccccc9O)cc8c7[C@H]6C)nc5)CC4)C3)C2)C(C)(C)C)cc1 [I-151] |
| > 90% | > 100 nM | > 90% | > 100 nM | 70 to 90% | 10 to 100 nM | D (D (<10 fold)) | – | – | – | C#Cc1ccc(CNC(=O)[C@@H]2C[C@@H](O)CN2C(=O)[C@@H](NC(=O)N2CCN(CC3CCN(c4cnc(N5CCc6[nH]c7nnc(-c8ccccc8O)cc7c6[C@@H]5C)nc4)CC3)CC2)C(C)(C)C)cc1 [I-160] |
| > 90% | < 10 nM | > 90% | 10 to 100 nM | > 90% | 1 to 10 nM | C (C (10-100 fold)) | – | – | – | C#Cc1ccc(CNC(=O)[C@@H]2C[C@@H](O)CN2C(=O)[C@@H](NC(=O)N2CC3(CC(N4CCC(c5cnc(N6CCc7[nH]c8nnc(-c9ccccc9O)cc8c7[C@H]6C)nc5)CC4)C3)C2)C(C)(C)C)c(O)c1 [I-166] |
| > 90% | 10 to 50 nM | 70 to 90% | > 100 nM | 70 to 90% | 1 to 10 nM | C (C (10-100 fold)) | – | – | – | C#Cc1ccc([C@H](C)NC(=O)[C@@H]2C[C@@H](O)CN2C(=O)[C@@H](NC(=O)N2CC3(CC(N4CCC(c5cnc(N6CCc7[nH]c8nnc(-c9ccccc9O)cc8c7[C@H]6C)nc5)CC4)C3)C2)C(C)(C)C)c(OC)c1 [I-167] |
| > 90% | > 100 nM | < 50% | > 100 nM | 50 to 70% | 10 to 100 nM | C (C (10-100 fold)) | – | – | – | C#Cc1ccc(CNC(=O)[C@@H]2C[C@@H](O)CN2C(=O)[C@@H](NC(=O)N2CC3(CC(N4C[C@H]5CN(c6cnc(N7CCc8[nH]c9nnc(-c%10ccccc%10O)cc9c8[C@H]7C)nc6)C[C@H]5C4)C3)C2)C(C)(C)C)cc1 [I-171] |
| > 90% | > 100 nM | 70 to 90% | > 100 nM | 50 to 70% | 10 to 100 nM | C (C (10-100 fold)) | – | – | – | C#Cc1ccc(CNC(=O)[C@@H]2C[C@@H](O)CN2C(=O)[C@@H](NC(=O)N2CC3(CC(N4C[C@H]5CN(c6cnc(N7CCc8[nH]c9nnc(-c%10ccccc%10O)cc9c8[C@@H]7C)nc6)C[C@H]5C4)C3)C2)C(C)(C)C)cc1 [I-172] |
| > 90% | > 100 nM | < 50% | > 100 nM | 50 to 70% | 10 to 100 nM | C (C (10-100 fold)) | – | – | – | C#Cc1ccc(CNC(=O)[C@@H]2C[C@@H](O)CN2C(=O)[C@@H](NC(=O)[C@H]2CCC3(CC2)C[C@H](N2CCC(N4CCC(N5CCN6c7cc(-c8ccccc8O)nnc7NC[C@H]6C5)CC4)CC2)C3)C(C)(C)C)c(F)c1 (some centres unmarked) [I-176] |
| – | > 100 nM | – | > 100 nM | – | 10 to 100 nM | B (B (>100-500 fold)) | A (A (>90% degradation)) | C (C (50-70% degradation)) | B (B (>70-90% degradation)) | C#Cc1ccc(CNC(=O)[C@@H]2C[C@@H](O)CN2C(=O)[C@@H](NC(=O)[C@H]2CCC3(CC2)C[C@H](N2CCC(N4CCC(N5CCN6c7cc(-c8ccccc8O)nnc7NC[C@H]6C5)CC4)CC2)C3)C(C)(C)C)c(OC)c1 (some centres unmarked) [I-178] |
| > 90% | > 100 nM | 70 to 90% | > 100 nM | 70 to 90% | 10 to 100 nM | C (C (10-100 fold)) | – | – | – | C#Cc1ccc(CNC(=O)[C@@H]2C[C@@H](O)CN2C(=O)[C@@H](NC(=O)N2CC3(CC(N4CCC(N5CCC(N6CCc7[nH]c8nnc(-c9ccccc9O)cc8c7[C@H]6C)CC5)CC4)C3)C2)C(C)(C)C)c(OC)c1 [I-183] |
